Patent publication US20050112573A1, “Method of detecting toxic substance” (priority 2001, published 2005)

Test system: yeast genes (level of expressed mRNA)
Assay: DNA chip analysis of expressed mRNA of yeast genes after 2 h culture with a toxic chemical substance
Assay type: cell-based, Saccharomyces cerevisiae S288C
Method in brief: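 S. cerevisiae S288C in YPD at 25 °C was exposed at log phase for 2 h to a growth-inhibiting, non-lethal concentration of the chemical. Poly(A) mRNA was reverse-transcribed with Cy3- or Cy5-dUTP and hybridized to a whole-genome yeast DNA chip (65 °C, >12 h). Values are fluorescence ratios versus untreated cells.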

## CdCl2 [(2)]
Yeast gene YAL053W, ratio to control without chemical
  The level of expressed mRNA in the presence of chemical substance/: 0.9
Yeast gene YAR010C
  The level of expressed mRNA in the presence of chemical substance/The level of expressed mRNA in the absence of chemical substance: 1.2
Yeast gene YBL005W-A
  The level of expressed mRNA in the presence of chemical substance/The level of expressed mRNA in the absence of chemical substance: 0.9
Yeast gene YBL041W
  The level of expressed mRNA in the presence of chemical substance/The level of expressed mRNA in the absence of chemical substance: 1.4
Yeast gene YBL043W
  The level of expressed mRNA in the presence of chemical substance/The level of expressed mRNA in the absence of chemical substance: 1.2
Yeast gene YBL048W, ratio to control without chemical substance, 2 h culture
  The level of expressed mRNA in the presence of chemical substance/: 7.9
Yeast gene YBL078C
  The level of expressed mRNA in the presence of chemical substance/The level of expressed mRNA in the absence of chemical substance: 2.7
Yeast gene YBL107C, ratio to control without chemical substance, 2 h culture
  The level of expressed mRNA in the presence of chemical substance/: 1.1
Yeast gene YBR036C
  The level of expressed mRNA in the presence of chemical substance/in the absence of chemical substance: 1.7
Yeast gene YBR214W
  The level of expressed mRNA in the presence of chemical substance/The level of expressed mRNA in the absence of chemical substance: 2.1
Yeast gene YBR298C
  The level of expressed mRNA in the presence of chemical substance/in the absence of chemical substance: 1.0
Yeast gene YCL020W
  The level of expressed mRNA in the presence of chemical substance/The level of expressed mRNA in the absence of chemical substance: 2.5
Yeast gene YCL027W
  The level of expressed mRNA in the presence of chemical substance/The level of expressed mRNA in the absence of chemical substance: 2.0
Yeast gene YCR004C
  The level of expressed mRNA in the presence of chemical substance/The level of expressed mRNA in the absence of chemical substance: 1.0
Yeast gene YCR071C
  The level of expressed mRNA in the presence of chemical substance/The level of expressed mRNA in the absence of chemical substance: 0.7
Yeast gene YCR088W
  The level of expressed mRNA in the presence of chemical substance/The level of expressed mRNA in the absence of chemical substance: 1.1
Yeast gene YDL008W
  The level of expressed mRNA in the presence of chemical substance/The level of expressed mRNA in the absence of chemical substance: 1.0
Yeast gene YDL072C, ratio to control without chemical
  The level of expressed mRNA in the presence of chemical substance/: 1.1
Yeast gene YDL078C
  The level of expressed mRNA in the presence of chemical substance/in the absence of chemical substance: 1.1
Yeast gene YDL204W, ratio to control without chemical
  The level of expressed mRNA in the presence of chemical substance/: 1.9
Yeast gene YDL215C
  The level of expressed mRNA in the presence of chemical substance/in the absence of chemical substance: 1.5
Yeast gene YDL222C, ratio to control without chemical
  The level of expressed mRNA in the presence of chemical substance/: 1.1
Yeast gene YDL238C
  The level of expressed mRNA in the presence of chemical substance/The level of expressed mRNA in the absence of chemical substance: 1.0
Yeast gene YDR055W
  The level of expressed mRNA in the presence of chemical substance/The level of expressed mRNA in the absence of chemical substance: 2.1
Yeast gene YDR084C
  The level of expressed mRNA in the presence of chemical substance/The level of expressed mRNA in the absence of chemical substance: 0.9
Yeast gene YDR085C
  The level of expressed mRNA in the presence of chemical substance/The level of expressed mRNA in the absence of chemical substance: 1.8
Yeast gene YDR104C
  The level of expressed mRNA in the presence of chemical substance/The level of expressed mRNA in the absence of chemical substance: 1.1
Yeast gene YDR115W
  The level of expressed mRNA in the presence of chemical substance/The level of expressed mRNA in the absence of chemical substance: 0.9
Yeast gene YDR259C
  The level of expressed mRNA in the presence of chemical substance/The level of expressed mRNA in the absence of chemical substance: 1.0
Yeast gene YDR297W
  The level of expressed mRNA in the presence of chemical substance/in the absence of chemical substance: 0.8
Yeast gene YDR315C
  The level of expressed mRNA in the presence of chemical substance/The level of expressed mRNA in the absence of chemical substance: 1.4
Yeast gene YDR330W, ratio to control without chemical substance, 2 h culture
  The level of expressed mRNA in the presence of chemical substance/: 1.5
Yeast gene YDR358W
  The level of expressed mRNA in the presence of chemical substance/The level of expressed mRNA in the absence of chemical substance: 1.1
Yeast gene YDR387C
  The level of expressed mRNA in the presence of chemical substance/in the absence of chemical substance: 0.9
Yeast gene YDR388W
  The level of expressed mRNA in the presence of chemical substance/The level of expressed mRNA in the absence of chemical substance: 0.7
Yeast gene YDR411C, ratio to control without chemical substance, 2 h culture
  The level of expressed mRNA in the presence of chemical substance/: 2.8
Yeast gene YDR432W
  The level of expressed mRNA in the presence of chemical substance/The level of expressed mRNA in the absence of chemical substance: 0.8
Yeast gene YDR481C
  The level of expressed mRNA in the presence of chemical substance/The level of expressed mRNA in the absence of chemical substance: 2.3
Yeast gene YDR510W
  The level of expressed mRNA in the presence of chemical substance/The level of expressed mRNA in the absence of chemical substance: 1.3
Yeast gene YDR511W, ratio to control without chemical substance, 2 h culture
  The level of expressed mRNA in the presence of chemical substance/: 1.7
Yeast gene YDR545W, ratio to control without chemical substance, 2 h culture
  The level of expressed mRNA in the presence of chemical substance/: 1.2
Yeast gene YEL001C, ratio to control without chemical
  The level of expressed mRNA in the presence of chemical substance/: 1.0
Yeast gene YEL042W
  The level of expressed mRNA in the presence of chemical substance/The level of expressed mRNA in the absence of chemical substance: 0.9
Yeast gene YEL066W
  The level of expressed mRNA in the presence of chemical substance/The level of expressed mRNA in the absence of chemical substance: 2.9
Yeast gene YER004W, ratio to control without chemical substance, 2 h culture
  The level of expressed mRNA in the presence of chemical substance/: 1.5
Yeast gene YER035W, ratio to control without chemical substance, 2 h culture
  The level of expressed mRNA in the presence of chemical substance/: 1.6
Yeast gene YER039C
  The level of expressed mRNA in the presence of chemical substance/The level of expressed mRNA in the absence of chemical substance: 1.2
Yeast gene YER079W, ratio to control without chemical substance, 2 h culture
  The level of expressed mRNA in the presence of chemical substance/: 1.6
Yeast gene YER106W, ratio to control without chemical
  The level of expressed mRNA in the presence of chemical substance/: 0.7
Yeast gene YER107C
  The level of expressed mRNA in the presence of chemical substance/The level of expressed mRNA in the absence of chemical substance: 0.5
Yeast gene YER130C
  The level of expressed mRNA in the presence of chemical substance/The level of expressed mRNA in the absence of chemical substance: 1.6
Yeast gene YER158C, ratio to control without chemical substance, 2 h culture
  The level of expressed mRNA in the presence of chemical substance/: 0.9
Yeast gene YER163C, ratio to control without chemical substance, 2 h culture
  The level of expressed mRNA in the presence of chemical substance/: 2.4
Yeast gene YER175C, ratio to control without chemical substance, 2 h culture
  The level of expressed mRNA in the presence of chemical substance/: 1.2
Yeast gene YFL006W, ratio to control without chemical substance, 2 h culture
  The level of expressed mRNA in the presence of chemical substance/: 2.8
